Values quoted from earlier work, collected in patent US20170128486A1, “CONSUMABLE COMPOSITIONS AND USES THEREOF FOR ALLEVIATING UNDESIRABLE PHYSIOLOGICAL EFFECTS SYSTEMS” (ImmunoL0G1C R&D Inc., priority 2015, published 2017).
Converted amounts (≈) assume the structure as drawn.

| solubility in water | solubility (in water) [µg/mL] | SMILES |
| --- | --- | --- |
| poorly soluble in water | – | N[C@@H](Cc1c[nH]c2ccccc12)C(=O)O [L-tryptophan] |
| – | 10000 (≈ 45.4 mM) | N[C@@H](Cc1c[nH]c2ccc(O)cc12)C(=O)O [5-hydroxytryptophan] |
